Experimental data from patent publication US20110288154A1, “RNA Interference Mediated Inhibition of Epithelial Sodium Channel (ENaC) Gene Expression Using Short Interfering Nucleic Acid (siNA)” (MERCK & CO., INC., priority 2008, published 2011).

Tests used:
human ENaCα mRNA = test: ENaCα mRNA knockdown and EC50 in human normal bronchial epithelial cells (NHBEs); type: cell-based; details: 48 hrs post transfection, n = 3 donors; for EC50: nine point dose range 0.01-100 nM
Description: Human Bronchial Epithelial cells (NHBE cells) obtained from Lonza (Cat. No. CC-2540) were grown at 37 deg in the presence of 5% CO2 and cultured in BEBM basal medium (Lonza, Cat. No. CC-3171) on Biocoat Collagenl coated flasks (Becton Dickinson).
mRNA Knockdown and EC50 in NHBEs: Cells were plated in collagen 1 coated plates and cultured in appropriate culture media. The cells were cultured for 24 hours after plating at 37 deg in the presence of 5% CO2. siNAs were diluted in OptiMEM 1 to 1 uM and the delivery lipid GSK212357A to 25 ug/ml. For formulation of the siNAs equal volumes of the diluted siNA and delivery lipid were combined and incubated for 20 minutes at room temperature. Cells were meanwhile trypsinised and resuspended in antibiotic free BEBM media at 150,000 cells/ml. 20 ul of the formulated siNA and 80 ul of BEBM media was added per well of a 96 well plate (6 replicates/data point/siRNA concentration) so as to give a nine point dose range of the siRNAs (100 nM, 30 nM, 10 nM, 3 nM, 1 nM, 0.3 nM, 0.1 nM, 0.03 nM, 0.01 nM). The time of incubation with the GSK212357A-siNA complexes were 48 hours with one change of media at 24 hours.
RNA Isolation 96 well Plate: Total RNA was isolated from the cells in the 96-well plate format using the Automated SV96 Total RNA Isolation System (Promega) according to the manufacturer's instructions. The Biomek 2000 Laboratory Automation Workstation (Beckman Coulter) was used to apply the transfected cell lysates to a silica membrane. RNase-Free DNase I was then applied directly to the silica membrane to digest contaminating genomic DNA. The bound total RNA was further purified from contaminating salts, proteins and cellular impurities by simple washing steps. Finally, total RNA was eluted from the membrane by the addition of Nuclease-Free Water.
(§1) Quantitative RT-PCR (TaqMan): A series of probes and primers were used for the detection of mRNA transcripts of ENaCα, OAS1, IL8 and GAPDH (as control/normalisation) in the human cell lines. The assays were performed on an ABI 7900HT instrument according to the manufacturer's instructions. Primer Probe sets used GAPDH Forward 5′-[…]-3 (SEQ ID NO: 128), ‘Reverse 5’-GGGCCATCCACAGTCTTCT-3′ (SEQ ID NO: 129), Probe 5′ d FAM-[…]-TAMRA 3′ (SEQ ID NO: 130), ENaCa Forward 5′-[…]-3′ (SEQ ID NO: 131), Reverse 5′-[…]-3′ (SEQ ID NO: 132), Probe 5′ d FAM-[…]-TAMRA 3′ (SEQ ID NO: 133), OAS1 Forward 5′-[…]-3′ (SEQ ID NO: 134), Reverse 5′-[…]-3′ (SEQ ID NO: 135), Probe 5′ d FAM-[…]-TAMRA 3′ (SEQ ID NO: 136), IL8 Forward 5′-CTGGCCGTGGCTCTCTTG-3′ (SEQ ID NO: 137), Reverse 5′-[…]-3′ (SEQ ID NO: 138), Probe 5′ d FAM-[…]-TAMRA 3′ (SEQ ID NO: 139).
TaqMan: Critical threshold values (Ct) were converted to copy numbers corresponding to the particular gene analysed in each well of the 384 well plate. Six identical wells were prepared in each plate for a given treatment. […] Determination of the percentage coefficient of variation (CV) (% C.V.=[standard deviation/average]*100) allowed the omitting of wells whose value was an outlier (so that % C.V.<25). Relative abundance (aka relative expression) of a gene was determined by dividing the mean copy number of that gene with its GAPDH counterpart in that particular sample.
EC50 values were calculated from the data using sigma plot. All calculations of the efficacy and potency of the siNAs were done relative to the non-targeting control siNA.

ENaC-alpha mRNA = ENaC-alpha mRNA knockdown in recombinant HEK cells of the FLIPR assay; type: cell-based, human; details: n = 6, mean of 3 independent experiments
Description: (§2) Recombinant HEK293 cell line (expressing ENaC beta & gamma) SCNN1B (P618AY620L)+SCNN1G (P624stop) #24. were grown at 37 deg in the presence of CO2 and were cultured in M1 medium M1+0.5 mg/ml geneticin and 0.2 mg/ml hygromycin.
(§3) Functional Effects on ENaC via FLIPR in Cells Over Expressing ENaCa: A reverse transfection methodology was used to transfect the HEK recombinant cell line. 5 ul of siRNA (diluted in Optimem to the appropriate concentration) was mixed with 5 ul of the Gemini lipid transfection reagent diluted in Optimem in 384 well non-coated FLIPR plate. Plates were incubated at room temperature for 20 minutes to allow complex formation. Cells were harvested, spun down, diluted to 3×10^5/ml and plated out at 40 ul/well (12K/well) in 384 well plate format containing the transfection complex. The plates were incubated overnight for 20 hours. The cells were then transduced with BacMam virus expressing ENaC alpha (BacMam viruses expressing SCNN1A, GRITS 29703, titre 0.356×10^8/ml). 30 ul of virus was added (1.7%) 20K/well, MOI was approximately 1. Cells were incubated for 24 hours. On day of the FLIPR assay, media was aspirated, leaving 10 ul volume. 20 ul of dye per well was loaded (FMP2 Blue dye, R8181, MDS. For each pot, 133 ml Tyrodes buffer was diluted to make 1× stock prior to assay). The plate was incubated for 0.5 hours at room temperature and 10 ul of the compound added on-line prior to FLIPR read (FLIPR settings: protocol Na MP.fcf, with Exposure length 0.4 sec and Filter #2). Compound plate: 1 ul volume, column 1, 2 and 3 are 16, 4 and 0 uM amiloride final (1/200 dilution) (IC80, IC50 and ctrl).
RNA isolation 384 well Plate: Extract mRNA using Qiagen Turbo Capture RNA preparation kit, following manufacturer's instructions.
as §1

ENaC = test: FLIPR assay of sodium transport in recombinant HEK cells over expressing ENaC; type: cell-based, human; details: FLIPR, n = 6, mean of 3 independent experiments
Description: as §2, §3

[1] = final siNA concentration 100 nM

Substance | Maximum mRNA knockdown NHBEs (human ENaCα mRNA) [%] | EC50 (human ENaCα mRNA) [nM] | % ENaC-alpha mRNA knockdown (ENaC-alpha mRNA; final siNA concentration 10 nM) [%] | % ENaC-alpha mRNA knockdown (ENaC-alpha mRNA; final siNA concentration 20 nM) [%] | % ENaC-alpha mRNA knockdown (ENaC-alpha mRNA; final siNA concentration 50 nM) [%] | % ENaC-alpha mRNA knockdown (ENaC-alpha mRNA; [1]) [%] | % Inhibition of Maximal Response (4 uM amiloride) (ENaC; final siNA concentration 10 nM) [%] | % Inhibition of Maximal Response (16 uM amiloride) (ENaC; final siNA concentration 10 nM) [%] | % Inhibition of Maximal Response (4 uM amiloride) (ENaC; final siNA concentration 20 nM) [%] | % Inhibition of Maximal Response (16 uM amiloride) (ENaC; final siNA concentration 20 nM) [%] | % Inhibition of Maximal Response (4 uM amiloride) (ENaC; final siNA concentration 50 nM) [%] | % Inhibition of Maximal Response (16 uM amiloride) (ENaC; final siNA concentration 50 nM) [%] | % Inhibition of Maximal Response (4 uM amiloride) (ENaC; [1]) [%] | % Inhibition of Maximal Response (16 uM amiloride) (ENaC; [1]) [%]
B GcuGuGccuAcAucuucuA TTB / UAGAAGAuGuAGGcAcAGcUU (sense GCUGUGCCUACAUCUUCUATT; antisense UAGAAGAUGUAGGCACAGCUU; siRNA; B caps on sense ends, letter-case modifications not given here, further chemistry not given here) [Site 1388] | 79 | 4.2 |  |  |  |  |  |  |  |  |  |  |  | 
B GuGuGGcuGuGccuAcAuc TTB / GAUGuAGGcAcAGccAcAcUU (sense GUGUGGCUGUGCCUACAUCTT; antisense GAUGUAGGCACAGCCACACUU; siRNA; B caps on sense ends, letter-case modifications not given here, further chemistry not given here) [Site 1383] | 64 | 4.9 |  |  |  |  |  |  |  |  |  |  |  | 
B uGuGcAAccAGAAcAAAuc TTB / GAUuuGuucuGGuuGcAcAUU (chain 1 UGUGCAACCAGAACAAAUCTT; chain 2 GAUUUGUUCUGGUUGCACAUU; siRNA; B caps on sense ends, letter-case modifications not given here, further chemistry not given here) [Site 782] | 79 | 0.47 | 61.7 | 67.7 | 75.1 | 73.1 | 37.1 | 40.8 | 41.4 | 47.9 | 52.5 | 59.7 | 81.5 | 85.2
B uuAuGGAuGAuGGuGGcuu TTB / AAGccAccAucAuccAuAAUU (sense UUAUGGAUGAUGGUGGCUUTT; antisense AAGCCACCAUCAUCCAUAAUU; siRNA; B caps on sense ends, letter-case modifications not given here, further chemistry not given here) [Site 1181] | 78 | 1.59 | 52.6 | 65.6 | 76.1 | 76.9 | 43.8 | 45.8 | 48.9 | 51.4 | 62.2 | 65.5 | 77.5 | 77.5
